Experiments:
Type in all cases: in vivo, BALB/c mice
[1] = system: OVA-sensitized/challenged mouse model; test: Preliminary determination of total serum IgE level in OVA-sensitized/challenged mouse model; conditions: 30 mg/kg PO 1 h prior to OVA inhalation
Experimental: In order to found the purified extract showing more pharmacologically potent activity than the crude extract prepared in comparative Example, following preliminary test was performed by the method disclosed in the literature (Elias, J. A. et al., J. Clin. Invest., 111, pp 297-297, 2003).
1-1. Animal Sensitization and Airway Challenge
(§1) Specific pathogen-free female BALB/c mice (about 20 g), aged 6 weeks, which were routinely screened serologically for relevant respiratory pathogens, were purchased from ORIENT Co. (Seoul, Korea) and acclimated with the experimental environment for 1 week.
(§2) Briefly, mice were sensitized by intraperitoneal injection of 20 μg OVA (Ovalbumin; A5503, Sigma, St. Louis, Mo.), which was emulsified in 2 mg aluminum hydroxide in 200 μl of PBS buffer (pH 7.4), biweekly. The mice were challenged through the airways with OVA (1% in PBS) for 30 min using an ultrasonic nebulizer (NE-U12; Omron Corp., Tokyo, Japan) from the 28th day to 34th day after the initial sensitization. 24 hrs after the antigen treatment, the airway hyperresponsiveness was determined and the mice were sacrificed 48 hrs after the last challenge. The mice were sacrificed with an overdose of pentobarbital (Entobal®, Hanrim Pharm. Co. Ltd.) 24 h after the last challenge, and a tracheotomy was performed. […]

[2] = system: OVA-sensitized/challenged mouse model; test: Airway hyperresponsiveness test (Penh, whole body plethysmography, methacholine); conditions: 30 mg/kg PO
Experimental: In order to confirm the anti-asthmatic effect of test samples prepared in Examples using by airway hyperresponsiveness test in a OVA-sensitized/challenged mouse model, following test was performed by the method disclosed in the literature (Elias, J. A. et al., J. Clin. Invest., 111, pp 297-297, 2003).
as §1
as §2, with “performed. After […] of physiological saline solution (PBS) was instilled into the lungs, bronchoalveolar lavage fluid (BALF) was obtained by aspiration three times (total 1.5 ml) via tracheal cannulation.” for “performed.”
In order to evaluate the airway hyperresponsiveness of the mice, the airway resistance was determined using by apparatus (One chamber whole body plethymography, OCP3000, All Medicus, Seoul. Korea) and the determined value was statistically calculated by Pehn value (Enhance Pause) reflecting on the degree of airway obstruction. The Penh value was determined for 3 mins by the process of determining the basal value at the eupnea phase and determining the Penh value after inhaling PBS with Ultrasonic nebulizer (NE-U12, IMRON Corp., Tokyo, JAPAN) for 3 mins.
Thereafter, various concentrations of methacholine (A2251, Sigma, St. Louis, Mo.), 12, 25 and 50 mg/ml, were inhaled with increasing concentration to determine the Pehn values. The increase of Penh value was expressed as percentage (%) after the methacholine inhalation and the Penh value of basal line was set to 100%. […]

[3] = system: OVA-sensitized/challenged mouse model; test: Level of eosinophil and inflammatory cells in BALF; conditions: 30 mg/kg PO
Experimental: In order to confirm the inhibition effect of test samples prepared in Examples on the level of eosinophil and inflammatory cells in bronchoalveolar fluid (BALF), following test was performed by the method disclosed in the literature (Chen M. et al., Immunolgy, pp 376-384, 2011).
The bronchoalveolar lavage fluid (BALF) prepared in Experimental Example 1 was recovered to determine the level of inflammatory cells.
The total inflammatory cell number was assessed by the counting of cells in at least five squares of a hemocytometer after excluding dead cells by staining with trypan blue (Daigle I. et al., Swiss Med Wkly, 131, pp 231-7, 2001). 100 μl of BALF was loaded onto a slide and centrifuged (200×g, 4° C., 10 min) to fix the cells onto the slide using a Cellspin machine (Cyto12.5+clip5, Hanil Science Industrial, Korea). The cells were stained by Diff-Quick® Stain reagents (Sysmex, Cat No. 38721, Switzerland) according to the manufacturer's instructions. Statistical significance was determined by Student's two-tailed t-test for independent means and the critical level for significance was set at P<0.05.

[4] = system: OVA-sensitized/challenged mouse model; test: Level of IgE and OVA-specific IgE in blood serum (ELISA); conditions: 30 mg/kg PO
Experimental: In order to confirm the inhibition effect of test samples prepared in Examples on the level of IgE and OVA-specific IgE in blood serum, following test was performed by the method disclosed in the literature (Kay, A. B., The New England Journal of Medicine, 344, pp 30-37, 2001).
The blood serum and bronchoalveolar lavage fluid (BALF) prepared in Experimental Example 1 was recovered to determine the level of IgE and OVA-specific IgE in blood serum.
The blood serum and bronchoalveolar lavage fluid (BALF) was added to 96-well plates (ELISA plate) and coated with 0.1M NaHCO3 buffer solution (pH 8.3) containing 20 μg/mlof OVA (Sigma, Mo., USA) at 4° C. overnight. After inhibiting nonspecific reaction using by PBS containing 1% bovine serum albumin, the serum for testing was diluted to 1:400 and reacted together for 2 hours at room temperature. After washing, the serum was reacted with diluted (×300) anti-mouse IgE monoclonal antibody (MCA419, Serotec, Oxford, UK) for 2 hours and with diluted (×4000) HRP-conjugated goat anti-rat IgG polyclonal A (STAR110P, Serotec, UK) for 1 hours at room temperature. After washing, the solution was stained with 3,3′,5,5′-tetramethylbenzidine (52-00-02, KPL) substrate and the reaction was stopped by 2N H2SO4 to determine the absorbance using by spectroscopy (Versamax, Molecular Devices, US) at 450 nm.

[5] = system: OVA-sensitized/challenged mouse model; test: Level of Th2 cytokines (IL-4, IL-5, IL-13) and IL-1β in BALF (ELISA); conditions: 30 mg/kg PO
Experimental: In order to confirm the inhibition effect of test samples prepared in Examples on the level of Th2 cytokines (IL-4, IL-5 and IL-13) and IL-1β in bronchoalveolar lavage fluid (BALF), following test was performed by the sandwich enzyme immunosorbent assay method disclosed in the literature (Renz H. et al., J. Exp. Med., […], pp 1175-1180, 1993).
The blood serum and bronchoalveolar lavage fluid (BALF) was added to 96-well plates (ELISA plate) coated with cytokine antibody to induce antigen-antibody reaction for 2 hours at room temperature. The level of Th2 cytokines (IL-4, IL-5 and IL-13) and IL-1β in bronchoalveolar lavage fluid (BALF) was determined using by ELISA kit (Biosource Int. CA, USA) specifically reacting with each cytokine according to the manufacture's manual.

[6] = system: OVA-sensitized/challenged mouse model; test: Lung histology, H&E inflammation score; conditions: lung tissue, score 0-3; 30 mg/kg PO
Experimental: In order to confirm the anti-asthmatic effect of test samples prepared in Examples, following histopathological analysis on broncho-alveolar tissue was performed by the method disclosed in the literature (Kwak Y G. et al., J. Clin. Invest., 111, pp 1083-1092, 2003).
The delivered lung tissues of BALB/c mice which had not perform broncho-alveolar lavage was fixed for 24 h in 10% neutral-buffered formalin. After being embedded in paraffin, then made into 4-μm thickness sections, the tissue was stained with H&E solution (hematoxylin; Sigma MHS-16 and eosin, Sigma HT110-I-32) and the inflammation score of five regions in each section chosen in a randomized manner, was determined. (Inflammation score 0: inflamed cells is not found in bronchial surrounding, Inflammation score 1: inflamed cells is sporadically found in bronchial surrounding, Inflammation score 2: thin inflamed cell layer is found in most of bronchial surrounding, Inflammation score 3: thick inflamed cell layer is found in most of bronchial surrounding).

[7] = system: OVA-sensitized/challenged mouse model; test: Goblet cell plasia, PAS staining of lung tissue; conditions: ratio of goblet cell in bronchiolar epithelial cell; 30 mg/kg PO
Experimental: In order to confirm the anti-asthmatic effect of test samples prepared in Examples, following goblet cell plasia analysis on broncho-alveolar tissue was performed by the method disclosed in the literature (Lee K S. et al., FASEB J., 20, pp 455-465, 2006).
The delivered lung tissues of BALB/c mice which had not perform broncho-alveolar lavage was fixed for 24 h in 10% neutral-buffered formalin. After being embedded in paraffin, then made into 4-μm thickness sections, the tissue was stained with Periodic acid Schiff (PAS stain kit, T-K7308, IMEB, CA, USA) to determine the ratio of goblet cell in bronchiolar epithelial cell

Compound: CC(C)(O)c1ccccc1CC[C@@H](SCC1(CC(=O)O)CC1)c1cccc(/C=C/c2ccc3ccc(Cl)cc3n2)c1 [M30, Montelukast]
- total IgE in blood serum [1]: 1.82 ± 0.4 µg/mL
- Penh Value ([2]; methacholine 0 mg/Ml): 0.49 ± 0.04
- Penh Value ([2]; methacholine 12.5 mg/Ml): 1.54 ± 0.20
- Penh Value ([2]; methacholine 25 mg/Ml): 1.98 ± 0.37
- Penh Value ([2]; methacholine 50 mg/Ml): 2.51 ± 0.36
- No. of eosinolphil [3]: 52.03 ± 4.06 10^3 cells/mouse
- No. of inflammatory cells [3]: 106.67 ± 6.48 10^3 cells/mouse
- level of IgE in serum [4]: 4.76 ± 0.73 µg/mL
- level of OVA-specific IgE ([4]; blood serum): 0.09 ± 0.02 µg/mL
- IL-1β level [5]: 187.03 ± 47.17 pg/mL
- IL-4 level [5]: 32.60 ± 4.53 pg/mL
- IL-5 level [5]: 69.74 ± 7.17 pg/mL
- IL-13 level [5]: 25.93 ± 4.13 pg/mL
- Inflammation score [6]: 1.25 ± 0.13
- PAS + cells/bronchiole [7]: 39.21 ± 2.34%

Reference: patent US9675658B2, “Method of treating inflammation, allergy and asthma with a purified extract (ATC2) isolated from Pseudolysimachion rotundam var. subintegrum containing abundant amount of active ingredient” (YUNGJIN PHARMACEUTICAL CO., LTD, priority 2012, dated 2017)
